Format in all cases: cell-based, mouse
Experiment [1] has as its system BMDM. The experiment can be described thus: Q-PCR quantitation of cytokine mRNAs in LPS-stimulated BMDM. Details: Il6 mRNA induction: dose or concentration left out as unconfirmed. The conditions noted are these: BMDM pretreated with SB202190 or SP600125 for 16 h, LPS. How it is done:
RNA was extracted using AllPrep DNA/RNA Mini kit, and cDNA was synthesized using SuperScript™ VILO™ cDNA Synthesis Kit. mRNA expression was determined by QPCR in a CFX96 thermal cycler (Biorad) as described (Zhong et al., 2016). Data are presented in arbitrary units and calculated by the 2^(−ΔΔCT) method. Primer sequences were obtained from the NIH qPrimerDepot (http://mouseprimerdepot.nci.nih.gov) and provided by Integrated DNA technologies.

The subject of experiment [2] is BMDM. The experiment can be described thus: Cytokine secretion by LPS-stimulated BMDM (ELISA). The text has this: Paired antibodies (capture and detection) and standard recombinant mouse IL-1β (R&D Systems), and TNF and IL-6 (eBioscience) were used to determine mouse cytokine concentrations according to manufacturer's instructions.
A general note: In an ELISA, binding on a coated surface is turned into a signal by an enzyme label.

A further experiment has as its system NLRP3 inflammasome. The experiment can be described thus: NLRP3 inflammasome activation in LPS-primed BMDM. The conditions noted are these: for restoration of Casp1 activation and IL-1β secretion: metformin treated and ATP-stimulated macrophages, DMNQ 20 μM 16 hrs, MitoParaquat 5 μM 1 hr.
Experiment [3] has as its system BMDM. The experiment can be described thus: Mitochondrial function in BMDM (TMRM, MitoSOX, cellular ATP). The conditions noted are these: for mtROS: metformin treated and ATP-stimulated macrophages, DMNQ 20 μM 16 hrs, MitoParaquat 5 μM 1 hr.
Another experiment relates to mtDNA. The experiment can be described thus: mtDNA synthesis and cytosolic Ox-mtDNA in BMDM. The conditions noted are these: for restoration of cytoplasmic Ox-mtDNA or mtDNA synthesis: metformin treated macrophages, DMNQ 20 μM 16 hrs, MitoParaquat 5 μM 1 hr. The procedure:
To image mtDNA synthesis, BMDM were stimulated with LPS ([…]) for 4 hrs in the presence of 10 μM EdU. Cells were then washed twice with sterile PBS and fixed in 4% PFA for 15 min followed by permeabilization with 0.02% Triton X-100 for 10 min. EdU staining was performed using a Click-iT EdU Microplate Assay Kit (Thermo Fisher Scientific). In brief, BMDMs were postfixed in EdU fixative for 5 min, and equal volumes of the EdU reaction cocktail, which was prepared immediately before use, were added to each chamber and left overnight. Primary antibody against the mitochondrial marker Atp5b was included in the EdU reaction cocktail. The next day, the BMDM were washed three times with PBS followed by incubation with secondary Alexa antibodies from Life Technologies or Jackson Immuno Research Laboratories. DAPI was used for nuclear counterstaining.
Total DNA was isolated using Allprep DNA/RNA Mini Kit (catalogue 80204, Qiagen) according to manufacturer's instructions. mtDNA was quantified by qPCR using primers specific for the mitochondrial D-loop region, cytochrome c oxidase (COX) or a specific region of mtDNA that is not inserted into nuclear DNA (non-NUMT) (Zhong et al., 2018). Nuclear DNA encoding Teri, 18S ribosomal RNA and B2m was used for normalization.
Cellular fractionation was performed using Mitochondrial Isolation kit (89874, ThermoScientific) according to manufacturer's instructions. Cytosolic mtDNA was analyzed as described (Nakahira et al., 2011). For the measurement of Ox-mtDNA, mtDNA was first purified using Allprep DNA/RNA mini kit (Qiagen) from the cytosolic fraction of BMDM as described above. The 8-OH-dG content of the mtDNA was then quantified using an 8-OHdG quantification kit (ab201734), per manufacturer's instructions.

As to `Oc1ccc(-c2nc(-c3ccncc3)c(-c3ccc(F)cc3)[nH]2)cc1` [SB202190], in the experiment with BMDM [1], the “Il6 mRNA induction” value was “blocked”. Besides, the IL-6 secretion entry in the experiment on BMDM [2] (BMDM pretreated with SB202190 or SP600125 for 16 h, LPS) is listed as “blocked”.

With `Cc1nc(-c2nc(-c3ccc(OC(F)(F)F)cc3)no2)nn1Cc1cccc(N2CCC(S(C)(=O)=O)CC2)c1` [IACS-010759], in the experiment with BMDM [2] (BMDM, IACS-010759 20 μM 16 hrs), the IL-6 secretion entry was “modest inhibition” and the TNF secretion entry is on record as “no effect”. Moreover, the “IL-1β production and Casp1 and GSMDM cleavage” value with NLRP3 inflammasome (LPS-primed macrophages with NLRP3 activators, IACS-010759 20 μM 16 hrs) was “inhibited”. For the same compound, the “response to nigericin compared with other activators” value in the experiment on NLRP3 inflammasome (LPS-primed macrophages, IACS-010759 20 μM 16 hrs) is reported as “not as strongly inhibited”. The ROS production result with BMDM [3] (BMDM, IACS-010759 20 μM 16 hrs, MitoSOX) is on record as “enhanced”. In the experiment with mtDNA (LPS-primed BMDM, IACS-010759 16 hrs), the mtDNA synthesis result is “inhibited”.

In the case of `C[n+]1ccc(-c2cc[n+](CCCCCCCCCC[P+](c3ccccc3)(c3ccccc3)c3ccccc3)cc2)cc1.[I-].[I-].[I-]` [mitoParaquat], in the experiment with NLRP3 inflammasome, the “restoration of Casp1 activation and IL-1β secretion” value is recorded as “neither one restored”. In the experiment with BMDM [3], the mtROS entry is given as “increased”. For the same compound, the “restoration of cytoplasmic Ox-mtDNA or mtDNA synthesis” value in the experiment on mtDNA is given as “neither parameter was restored”.

For `COC1=C(OC)C(=O)c2ccccc2C1=O` [DMNQ, 2,3-dimethoxy-1,4-naphtoquinone], the “restoration of Casp1 activation and IL-1β secretion” value with NLRP3 inflammasome is given as “neither one restored”. Moreover, in the experiment on BMDM [3], the mtROS entry is recorded as “increased”. Further, in the experiment with mtDNA, the “restoration of cytoplasmic Ox-mtDNA or mtDNA synthesis” value is on record as “neither parameter was restored”.
